# Experimental data from the NIST ThermoML archive (doi:10.1021/acs.jced.8b00547).
# Numbers after ± are expanded uncertainties.
# Key:
# [1] = 101 kPa, Liquid; for speed of sound: Single path-length method; for mass density: Vibrating tube method
# [2] = refractive index (Na D-line) (dimensionless); conditions: 101 kPa, Liquid, Standard Abbe refractometry
# [3] = xn = mol fraction of the nth substance listed; conditions: 101 kPa, Liquid, x2 = 0; for speed of sound: Single path-length method; for mass density: Vibrating tube method
# [4] = refractive index (Na D-line) (dimensionless); xn = mol fraction of the nth substance listed; conditions: 101 kPa, Liquid, Standard Abbe refractometry, x2 = 0
SMILES,speed of sound ([1]; 298.15 K) [m/s],mass density ([1]; 298.15 K) [kg/m3],speed of sound ([1]; 308.15 K) [m/s],mass density ([1]; 308.15 K) [kg/m3],speed of sound ([1]; 318.15 K) [m/s],mass density ([1]; 318.15 K) [kg/m3],speed of sound ([1]; 328.15 K) [m/s],mass density ([1]; 328.15 K) [kg/m3],speed of sound ([1]; 338.15 K) [m/s],mass density ([1]; 338.15 K) [kg/m3],refractive index ([2]; 298.15 K),refractive index ([2]; 308.15 K),refractive index ([2]; 318.15 K),refractive index ([2]; 328.15 K),refractive index ([2]; 338.15 K),speed of sound ([3]; 298.15 K) [m/s],mass density ([3]; 298.15 K) [kg/m3],speed of sound ([3]; 308.15 K) [m/s],mass density ([3]; 308.15 K) [kg/m3],speed of sound ([3]; 318.15 K) [m/s],other results
CCC(C)O (stereo not given) [butan-2-ol],1212 ± 1.4,802.4 ± 0.41,1175.8 ± 1.4,793.86 ± 0.41,1139.5 ± 1.4,785.26 ± 0.41,1102.3 ± 1.4,775.73 ± 0.42,1064.5 ± 1.4,765.75 ± 0.42,1.39474 ± 0.00049,1.39011 ± 0.00049,1.38547 ± 0.00049,1.38022 ± 0.00049,1.37621 ± 0.00049,–,–,–,–,–,–
CCC(C)O (stereo not given) [butan-2-ol] + CCCC(C)=O,–,–,–,–,–,–,–,–,–,–,–,–,–,–,–,1212 ± 1.4,802.4 ± 0.41,1175.8 ± 1.4,793.86 ± 0.41,1139.5 ± 1.4,mass density ([3]; 318.15 K): 785.26 ± 0.41 kg/m3; speed of sound ([3]; 328.15 K): 1102.3 ± 1.4 m/s; mass density ([3]; 328.15 K): 775.73 ± 0.42 kg/m3; speed of sound ([3]; 338.15 K): 1064.5 ± 1.4 m/s; mass density ([3]; 338.15 K): 765.75 ± 0.42 kg/m3; refractive index ([4]; 298.15 K): 1.39474 ± 0.00049; refractive index ([4]; 308.15 K): 1.39011 ± 0.00049; refractive index ([4]; 318.15 K): 1.38547 ± 0.00049; refractive index ([4]; 328.15 K): 1.38022 ± 0.00049; refractive index ([4]; 338.15 K): 1.37621 ± 0.00049
CCCC(C)=O [pentan-2-one],1216 ± 1.4,802.09 ± 0.41,1174.4 ± 1.4,792.32 ± 0.41,1133.3 ± 1.4,782.44 ± 0.41,1093.6 ± 1.4,772.43 ± 0.42,1053.8 ± 1.4,762.27 ± 0.42,1.38782 ± 0.00049,1.38284 ± 0.00049,1.37782 ± 0.00049,1.3728 ± 0.00049,1.36764 ± 0.00049,–,–,–,–,–,–
CC(C)O [propan-2-ol],1138.5 ± 1.4,781.1 ± 0.41,1103.2 ± 1.4,772.51 ± 0.42,1068.1 ± 1.4,763.51 ± 0.42,1032.6 ± 1.4,754.19 ± 0.42,997.33 ± 1.4,743.66 ± 0.42,1.37522 ± 0.00049,1.37083 ± 0.00049,1.36622 ± 0.00049,1.36146 ± 0.00049,1.35637 ± 0.00049,–,–,–,–,–,–
CC(C)O [propan-2-ol] + CCCC(C)=O,–,–,–,–,–,–,–,–,–,–,–,–,–,–,–,1138.5 ± 1.4,781.1 ± 0.41,1103.2 ± 1.4,772.51 ± 0.42,1068.1 ± 1.4,mass density ([3]; 318.15 K): 763.51 ± 0.42 kg/m3; speed of sound ([3]; 328.15 K): 1032.6 ± 1.4 m/s; mass density ([3]; 328.15 K): 754.19 ± 0.42 kg/m3; speed of sound ([3]; 338.15 K): 997.33 ± 1.4 m/s; mass density ([3]; 338.15 K): 743.66 ± 0.42 kg/m3; refractive index ([4]; 298.15 K): 1.37522 ± 0.00049; refractive index ([4]; 308.15 K): 1.37083 ± 0.00049; refractive index ([4]; 318.15 K): 1.36622 ± 0.00049; refractive index ([4]; 328.15 K): 1.36146 ± 0.00049; refractive index ([4]; 338.15 K): 1.35637 ± 0.00049
